Data taken from ChEMBL document CHEMBL3751819, “Navigating into the chemical space between MGCD0103 and SAHA: novel histone deacetylase inhibitors as a promising lead” (Medchemcomm, 2015).
pIC50: −log10 of the molar value. Activity calls are given as the source filed them. No cut-off for these calls is given here.

What was measured:
HeLa [1] = assay: Induction of cell cycle arrest in human HeLa cells assessed as accumulation at G0/G1 phase at 0.5 uM after 24 hrs by propidium iodide staining based flow cytometry (reference value: 0.5 to 0.52%); type: functional
HeLa [2] = assay: Induction of apoptosis in human HeLa cells assessed as necrotic cells at 1.25 uM after 48 hrs by annexin-V-FITC/propidium iodide staining based flow cytometry (reference value: 0.693%); type: functional
Histone deacetylase 3 = Histone deacetylase 3 (Homo sapiens, UniProt O15379); assay: Inhibition of HDAC3 (unknown origin) using Boc-Lys(acetyl)-AMC as substrate preincubated for 5 mins followed by substrate addition by fluorescence assay
Chain of Histone deacetylase 3 (O15379 whole entry): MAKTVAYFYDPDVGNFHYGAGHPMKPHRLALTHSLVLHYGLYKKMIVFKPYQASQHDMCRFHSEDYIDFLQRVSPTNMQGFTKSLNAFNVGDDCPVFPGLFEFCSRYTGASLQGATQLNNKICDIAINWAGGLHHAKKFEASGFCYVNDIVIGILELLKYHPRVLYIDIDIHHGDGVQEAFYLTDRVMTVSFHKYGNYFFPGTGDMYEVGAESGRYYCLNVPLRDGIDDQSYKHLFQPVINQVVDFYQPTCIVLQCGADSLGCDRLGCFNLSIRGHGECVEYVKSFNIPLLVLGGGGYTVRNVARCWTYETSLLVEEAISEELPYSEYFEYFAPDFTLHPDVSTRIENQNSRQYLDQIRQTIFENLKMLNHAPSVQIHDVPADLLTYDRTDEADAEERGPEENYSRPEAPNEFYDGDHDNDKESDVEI

[3] = Half life in artificial gastric fluid; type: ADME
HeLa [4] = assay: Induction of cell cycle arrest in human HeLa cells assessed as accumulation at G0/G1 phase at 2 uM after 24 hrs by propidium iodide staining based flow cytometry (reference value: 0.5 to 0.52%); type: functional
HepG2 = assay: Antiproliferative activity against human HepG2 cells assessed as reduction in cell viability after 24 hrs by MTT assay; type: functional, cell-based; conditions: HepG2, 24 h
HeLa [5] = assay: Induction of apoptosis in human HeLa cells assessed as early apoptotic cells at 1.25 uM after 48 hrs by annexin-V-FITC/propidium iodide staining based flow cytometry (reference value: 1.4%); type: functional
[6] = biological target: T1, Protein deacetylase HDAC6 (Homo sapiens) (UniProt Q9UBN7); assay: Inhibition of HDAC6 in human A549 cells assessed as increase in acetylated tubulin expression at 5 uM incubated for 12 hrs by DAPI staining based immunofluorescence microscopy; type: cell-based
T1 sequence (whole entry): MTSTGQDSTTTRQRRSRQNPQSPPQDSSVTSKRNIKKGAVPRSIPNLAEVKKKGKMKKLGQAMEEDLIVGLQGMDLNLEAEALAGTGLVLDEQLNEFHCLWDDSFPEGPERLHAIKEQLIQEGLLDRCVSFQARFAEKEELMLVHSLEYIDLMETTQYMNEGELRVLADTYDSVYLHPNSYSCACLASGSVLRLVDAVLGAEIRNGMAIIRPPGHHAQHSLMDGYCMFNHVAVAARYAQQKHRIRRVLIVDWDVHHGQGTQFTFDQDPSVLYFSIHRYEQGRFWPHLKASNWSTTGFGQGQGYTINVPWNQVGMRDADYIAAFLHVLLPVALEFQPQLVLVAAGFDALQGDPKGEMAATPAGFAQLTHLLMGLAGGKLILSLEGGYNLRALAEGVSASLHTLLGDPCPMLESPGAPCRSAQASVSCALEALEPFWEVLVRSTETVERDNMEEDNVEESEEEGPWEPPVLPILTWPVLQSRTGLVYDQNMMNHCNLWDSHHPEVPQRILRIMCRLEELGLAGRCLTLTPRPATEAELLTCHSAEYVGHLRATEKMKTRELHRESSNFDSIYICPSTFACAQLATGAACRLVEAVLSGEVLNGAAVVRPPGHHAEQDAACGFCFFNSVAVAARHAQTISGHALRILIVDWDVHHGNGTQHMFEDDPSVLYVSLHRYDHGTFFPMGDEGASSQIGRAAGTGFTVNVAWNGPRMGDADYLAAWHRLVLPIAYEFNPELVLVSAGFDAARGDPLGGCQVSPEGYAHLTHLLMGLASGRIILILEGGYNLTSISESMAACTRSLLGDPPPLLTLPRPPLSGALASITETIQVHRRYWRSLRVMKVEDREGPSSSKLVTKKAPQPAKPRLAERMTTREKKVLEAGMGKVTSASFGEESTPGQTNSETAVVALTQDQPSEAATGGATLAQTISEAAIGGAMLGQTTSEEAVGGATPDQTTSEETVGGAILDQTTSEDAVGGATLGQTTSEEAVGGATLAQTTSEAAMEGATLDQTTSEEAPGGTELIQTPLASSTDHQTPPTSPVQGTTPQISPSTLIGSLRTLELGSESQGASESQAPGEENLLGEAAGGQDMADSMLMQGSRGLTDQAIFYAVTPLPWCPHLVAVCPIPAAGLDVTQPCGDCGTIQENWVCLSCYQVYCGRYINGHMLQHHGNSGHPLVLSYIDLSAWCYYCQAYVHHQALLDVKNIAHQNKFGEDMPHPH

HeLa [7] = assay: Induction of cell cycle arrest in human HeLa cells assessed as accumulation at S phase at 1 uM after 24 hrs by propidium iodide staining based flow cytometry (reference value: 0.12 to 0.13%); type: functional
HeLa [8] = assay: Induction of apoptosis in human HeLa cells assessed as viable cells at 1.25 uM after 48 hrs by annexin-V-FITC/propidium iodide staining based flow cytometry (reference value: 88.6%); type: functional; conditions: Homo sapiens, HeLa, 48 h; read-out: Activity
HeLa [9] = assay: Induction of cell cycle arrest in human HeLa cells assessed as accumulation at S phase at 0.5 uM after 24 hrs by propidium iodide staining based flow cytometry (reference value: 0.12 to 0.13%); type: functional
Histone deacetylase 1 = Histone deacetylase 1 (Homo sapiens, UniProt Q13547); assay: Inhibition of HDAC1 (unknown origin) using Boc-Lys(acetyl)-AMC as substrate preincubated for 5 mins followed by substrate addition by fluorescence assay
Chain of Histone deacetylase 1 (Q13547 whole entry): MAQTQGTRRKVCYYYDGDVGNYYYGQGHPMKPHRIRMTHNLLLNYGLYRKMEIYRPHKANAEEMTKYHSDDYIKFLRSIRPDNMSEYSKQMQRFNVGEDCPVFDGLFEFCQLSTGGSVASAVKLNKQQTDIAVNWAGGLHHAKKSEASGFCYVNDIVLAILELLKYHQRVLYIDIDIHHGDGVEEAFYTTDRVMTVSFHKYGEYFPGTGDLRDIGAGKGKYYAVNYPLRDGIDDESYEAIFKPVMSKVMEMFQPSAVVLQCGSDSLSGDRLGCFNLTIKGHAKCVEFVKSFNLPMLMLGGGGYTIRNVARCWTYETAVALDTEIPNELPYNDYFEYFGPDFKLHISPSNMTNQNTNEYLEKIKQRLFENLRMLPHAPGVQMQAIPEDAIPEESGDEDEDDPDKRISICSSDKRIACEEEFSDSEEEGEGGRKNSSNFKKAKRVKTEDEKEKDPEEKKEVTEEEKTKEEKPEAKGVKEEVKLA

[10] = Half life in artificial intestinal fluid; type: ADME
[11] = Antiproliferative activity against human HCT116 cells assessed as reduction in cell viability after 24 hrs by MTT assay; type: functional, cell-based; conditions: HCT-116, 24 h
MCF7 = assay: Antiproliferative activity against human MCF7 cells assessed as reduction in cell viability after 48 hrs by MTT assay; type: functional, cell-based; conditions: MCF7, 48 h
HeLa [12] = assay: Induction of cell cycle arrest in human HeLa cells assessed as accumulation at G2/M phase at 1 uM after 24 hrs by propidium iodide staining based flow cytometry (reference value: 0.35 to 0.37%); type: functional
[13] = biological target: T2, Protein deacetylase HDAC6 (Homo sapiens, UniProt Q9UBN7); assay: Inhibition of HDAC6 (unknown origin) using Boc-Lys(acetyl)-AMC as substrate preincubated for 5 mins followed by substrate addition by fluorescence assay
T2 sequence (Q9UBN7 whole entry): T1 sequence (whole entry)

HeLa [14] = assay: Induction of apoptosis in human HeLa cells assessed as viable cells at 2.5 uM after 48 hrs by annexin-V-FITC/propidium iodide staining based flow cytometry (reference value: 88.6%); type: functional; conditions: Homo sapiens, HeLa, 48 h; read-out: Activity
A549 = assay: Antiproliferative activity against human A549 cells assessed as reduction in cell viability after 24 hrs by MTT assay; type: functional, cell-based; conditions: A549, 24 h

SMILES | Activity (HeLa [1]) | Activity (HeLa [2]) | pIC50 (Histone deacetylase 3) | half-life [3] | Activity (HeLa [4]) | pIC50 (HepG2) | Activity (HeLa [5]) | inhibition [6] | Activity (HeLa [7]) | viability at 1.25 µM (HeLa [8]) | Activity (HeLa [9]) | pIC50 (Histone deacetylase 1) | half-life [10] | pIC50 [11] | pIC50 (MCF7) | Activity (HeLa [12]) | pIC50 [13] | viability at 2.5 µM (HeLa [14]) | pIC50 (A549)
O=C(NO)c1ccc(CNc2nccc(-c3cccnc3)n2)cc1 | 0.56% | 0.94% | 6.99 | > 24 h | 0.93% | 4.64 | 4.89% | Active | 0.03% | 79.3% | 0.13% | 7.19 | > 24 h | 4.86 | 4.80 | 0.31% | 7.11 | 81.1% | –
O=C(/C=C/c1ccc(CNc2nccc(-c3cccnc3)n2)cc1)NO | 0.58% | 0.924% | 6.95 | > 24 h | 0.87% | 4.69 | 4.27% | Active | 0.05% | 82.6% | 0.13% | 7.09 | > 24 h | 5.08 | 4.64 | 0.29% | 7.16 | 79.6% | 4.01
